From patent US8324264B1, “Inhibitors of bacterial biofilms and related methods” (Sequoia Sciences, Inc., priority 2011, dated 2012)
In brackets after ≈: the same amount, converted by molar mass.

Key:
P. aeruginosa biofilms = assay: Biofilm growth assay (spreading biofilm on semi-solid agar), P. aeruginosa; assay type: cell-based; design: P. aeruginosa (n = 10) inhibitory concentration in the biofilm growth assay: unit: ug/mL; details: for P. aeruginosa (n = 10) inhibitory concentration in the biofilm growth assay: Table 6, n = 10 isolates; for IC85: Pseudomonas aeruginosa, biofilm growth assay, overnight 37° C., vs negative controls, Tables 1-5, read-out: P. aeruginosa: concentration that reduces the area of the spreading biofilm by greater than or equal to 85%
Procedure, shortened: (§1)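 Values are compound concentrations (μg/ml) that cut the spreading-biofilm zone area by ≥85% relative to negative controls after overnight 37 °C growth from 5 μL central inoculum. E. coli plates: LB, 0.6% agar, 0.5% glucose; P. aeruginosa plates: M8 agar plus 0.2% glucose, 100 μM CaCl2, 1 mM MgSO4, 0.5% Casamino acids.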

B. cepacia = assay: Biofilm growth assay, Burkholderia cepacia; assay type: cell-based; details: Table 6, n = 10 isolates; M9 salts, 0.7% citrate, 0.4% Noble agar
Method: The biofilm growth assay was carried out to measure swarming or biofilm spreading on semi-solid agar media in round plates (for example, 100×15 mm), also referred to as Petri dishes. For E. coli, the plates contained LB medium with 0.6% agar and 0.5% glucose. P. aeruginosa plates were made with M8 agar supplemented with 0.2% glucose, 100 μM CaCl2, 1 mM MgSO4, and 0.5% Casamino acids. The agar plates of this assay consisted of 0.4% to 0.7% agar (Bacto or Noble agar), although other media may also be used as described in the literature and known to those skilled in the art. Test compounds at the desired concentration were added to the cooled, autoclaved media. Portions of the media were then poured into the plates (20 mL/plate), and the plates allowed to dry at room temperature for approximately 3 to 4 hours. Alternatively, however, plates may be dried in a laminar flow hood for approximately fifteen to twenty minutes. Overnight cultures were grown in a 37° C. shaker in LB (E. coli) or TSB (P. aeruginosa). Plates were inoculated by placing 5 μL of the appropriate overnight culture in the centers of the plates. The plates then were incubated overnight at 37° C. The area of the zone of spreading bacteria was then measured and replicates are averaged. Percent inhibition was calculated as 100×(area without compound−area with compound)/(area without compound). […] A > (“greater than” symbol) as used in Table 1 is well understood to those skilled in the art as an indication that the listed concentration was not effective at this concentration.
(§2) Table 6, below, lists the inhibitory concentrations of select compounds and antibiotics in the biofilm growth assay against various gram-negative bacterial biofilms. “N” means the number of isolates of bacteria tested. The biofilm growth assay procedure detailed in Example I, above, was followed. Burkholderia cepacia used media consisting of M9 salts, 100 μM CaCl2, 1 mM MgSO4, and 0.7% citrate in 0.4% Noble agar. Salmonella spp. used media consisting of Nutrient Broth with 0.5% glucose in 0.5% Noble agar.

Salmonella spp. = assay: Biofilm growth assay, Salmonella spp.; assay type: cell-based; details: Table 6, n = 6 isolates; Nutrient Broth, 0.5% glucose, 0.5% Noble agar
Method: The biofilm growth assay was carried out to measure swarming or biofilm spreading on semi-solid agar media in round plates (for example, 100×15 mm), also referred to as Petri dishes. For E. coli, the plates contained LB medium with 0.6% agar and 0.5% glucose. P. aeruginosa plates were made with M8 agar supplemented with 0.2% glucose, 100 μM CaCl2, 1 mM MgSO4, and 0.5% Casamino acids. The agar plates of this assay consisted of 0.4% to 0.7% agar (Bacto or Noble agar), although other media may also be used as described in the literature and known to those skilled in the art. Test compounds at the desired concentration were added to the cooled, autoclaved media. Portions of the media were then poured into the plates (20 mL/plate), and the plates allowed to dry at room temperature for approximately 3 to 4 hours. Alternatively, however, plates may be dried in a laminar flow hood for approximately fifteen to twenty minutes. Overnight cultures were grown in a 37° C. shaker in LB (E. coli) or TSB (P. aeruginosa). Plates were inoculated by placing 5 μL of the appropriate overnight culture in the centers of the plates. The plates then were incubated overnight at 37° C. The area of the zone of spreading bacteria was then measured and replicates are averaged. Percent inhibition was calculated as 100×(area without compound−area with compound)/(area without compound). An active compound was considered that which reduces the area of the spreading biofilm compared to negative controls by greater than or equal to 85%. The values shown in Table 1 are the concentrations of compounds (μg/ml) tested in the biofilm growth assay that reduce the area of the spreading biofilm compared to negative controls by greater than or equal to 85% unless noted differently in Table 1. A > (“greater than” symbol) as used in Table 1 is well understood to those skilled in the art as an indication that the listed concentration was not effective at this concentration.
as §2

E. coli biofilms = assay: Biofilm growth assay (spreading biofilm on semi-solid agar), E. coli; assay type: cell-based; design: E. coli (n = 10) inhibitory concentration in the biofilm growth assay: unit: ug/mL; details: for E. coli (n = 10) inhibitory concentration in the biofilm growth assay: Table 6, n = 10 isolates; for IC85: Escherichia coli, biofilm growth assay, overnight 37° C., vs negative controls, Tables 1-5, read-out: E. coli: concentration that reduces the area of the spreading biofilm by greater than or equal to 85%
Procedure, shortened: as §1

Evaluation of salts = assay type: physicochemical; details: Bis-MSA and mono-H3PO4 salts
Method: Evaluation of Compound 62 (Table 4) salt formation was performed. […] As stated herein, the invention also includes compounds and their salts. Evaluation of Compound 64 (Table 4) salt formation was performed. HCl (mono and bis), p-TSA (bis), BSA (bis), MSA (bis), H2SO4 (mono), and H3PO4 (mono) provided salts with crystallinity. […] As stated herein, the invention also includes compounds and their salts.

| Compound | P. aeruginosa (n = 10) inhibitory concentration in the biofilm growth assay (P. aeruginosa biofilms) | B. cepacia (n = 10) inhibitory concentration in the biofilm growth assay (B. cepacia) | Salmonella spp. (n = 6) inhibitory concentration in the biofilm growth assay (Salmonella spp.) | E. coli (n = 10) inhibitory concentration in the biofilm growth assay (E. coli biofilms) | IC85 (P. aeruginosa biofilms) | IC85 (E. coli biofilms) | aqueous solubility of salts compared to freebase (Evaluation of salts) | melting point |
| --- | --- | --- | --- | --- | --- | --- | --- | --- |
| CC[C@H]1OC(=O)[C@H](C)[C@@H](O[C@H]2C[C@@](C)(OC)[C@@H](O)[C@H](C)O2)[C@H](C)[C@@H](O[C@@H]2O[C@H](C)C[C@H](N(C)C)[C@H]2O)[C@](C)(O)C[C@@H](C)CN(C)[C@H](C)[C@@H](O)[C@]1(C)O [Azithromycin, azithromycin] | >16 | >16 | >16 | – | – | – | – | – |
| CC(C)(O/N=C(\C(=O)N[C@@H]1C(=O)N2C(C(=O)[O-])=C(C[n+]3ccccc3)CS[C@H]12)c1csc(N)n1)C(=O)O [Ceftazidime, ceftazidime, reference compound] | 4 | >8 | 0.5 | 0.25 | – | – | – | – |
| CN(C)C[C@]12CCC(C)(C)C[C@H]1C1=CC[C@@H]3[C@@]4(C)Cc5c(n[nH]c5N)C(C)(C)[C@@H]4CC[C@@]3(C)[C@]1(C)CC2 [Compound 64] | – | – | – | – | 0.5 µg/mL (≈ 0.987 µM) | 1 µg/mL (≈ 1.97 µM) | increased aqueous solubility | – |
| CC1(C)CC[C@]2(C(=O)O)CC[C@]3(C)C(=C(c4c[nH]c(CN5CCOCC5)c4)CC4[C@@]5(C)Cc6c(n[nH]c6N)C(C)(C)[C@@H]5CC[C@]43C)[C@@H]2C1 (stereo partly drawn) [Example 9, (4aS,6aS,6bR,8aR,13aR,15bS)-12-Amino-2,2,6a,6b,9,9,13a-heptamethyl-15-(5-(morpholinomethyl)-1H-pyrrol-3-yl)-2,3,4,4a,5,6,6a,6b,7,8,8a,9,11,13,13a,13b,14,15b-octadecahydro-1H-chryseno[1,2-f]indazole-4-a-carboxylic acid] | – | – | – | – | 0.5 µg/mL (≈ 0.76 µM) | 1 µg/mL (≈ 1.52 µM) | – | 270 to 280 °C (dec.) |
| CC1(C)CC[C@]2(C(=O)O)CC[C@]3(C)C(=C(c4cccnc4)CC4[C@@]5(C)Cc6c(n[nH]c6N)C(C)(C)[C@@H]5CC[C@]43C)[C@@H]2C1 (stereo partly drawn) [Example 12, (4aS,6aS,6bR,8aR,13aR,15bS)-12-Amino-2,2,6a,6b,9,9,13a-heptamethyl-15-(pyridin-3-yl)-2,3,4,4a,5,6,6a,6b,7,8,8a,9,11,13,13a,13b,14,15b-octadecahydro-1H-chryseno[1,2-f]indazole-4-a-carboxylic acid] | – | – | – | – | 0.5 µg/mL (≈ 0.876 µM) | 1 µg/mL (≈ 1.75 µM) | – | > 300 °C |
| CC1(C)CC[C@]2(C(=O)Sc3nnc(N)[nH]3)CC[C@]3(C)C(=C(c4cccnc4)CC4[C@@]5(C)Cc6c(n[nH]c6N)C(C)(C)[C@@H]5CC[C@]43C)[C@@H]2C1 (stereo partly drawn) [Compound 91, (4aS,6aS,6bR,8aR,13aR,15bS)—S-5-Amino-4H-1,2,4-triazol-3-yl 12-amino-2,2,6a,6b,9,9,13a-heptamethyl-15-(pyridin-3-yl)-2,3,4,4a,5,6,6a,6b,7,8,8a,9,11,13,13a,13b,14,15b-octadecahydro-1H-chryseno[1,2-f]indazole-4-a-carbothioate] | – | – | – | – | 1 µg/mL (≈ 1.49 µM) | 1 µg/mL (≈ 1.49 µM) | – | > 300 °C |
| CN(C)c1cc(C2=C3[C@@H]4CC(C)(C)CC[C@]4(C(=O)O)CC[C@@]3(C)[C@]3(C)CC[C@H]4C(C)(C)c5n[nH]c(N)c5C[C@]4(C)C3C2)ccn1 (stereo partly drawn) [Example 22, (4aS,6aS,6bR,8aR,13aR,15bS)-12-Amino-15-(2-(dimethylamino)pyridin-4-yl)-2,2,6a,6b,9,9,13a-heptamethyl-2,3,4,4a,5,6,6a,6b,7,8,8a,9,11,13,13a,13b,14,15b-octadecahydro-1H-chryseno[1,2-f]indazole-4-a-carboxylic acid] | – | – | – | – | 1 µg/mL (≈ 1.63 µM) | > 2 µg/mL | – | > 300 °C |
| CC1(C)CC[C@]2(C(=O)O)CC[C@]3(C)C(=C(c4c[nH]c5ccccc45)CC4[C@@]5(C)Cc6c(n[nH]c6N)C(C)(C)[C@@H]5CC[C@]43C)[C@@H]2C1 (stereo partly drawn) [Example 8, (4aS,6aS,6bR,8aR,13aR,15bS)-12-Amino-15-(1H-indol-3-yl)-2,2,6a,6b,9,9,13a-heptamethyl-2,3,4,4a,5,6,6a,6b,7,8,8a,9,11,13,13a,13b,14,15b-octadecahydro-1H-chryseno[1,2-f]indazole-4-a-carboxylic acid] | – | – | – | – | 0.25 µg/mL (≈ 0.411 µM) | 1 µg/mL (≈ 1.64 µM) | – | > 300 °C (dec.) |
| CC1(C)CC[C@]2(c3n[nH]c(O)c3CCN)CC[C@]3(C)C(=C(c4ccoc4CN4CCOCC4)CC4[C@@]5(C)Cc6c(n[nH]c6N)C(C)(C)[C@@H]5CC[C@]43C)[C@@H]2C1 (stereo partly drawn) [Compound 92, 3-((4aS,6aS,6bR,8aR,13aR,15bS)-12-Amino-2,2,6a,6b,9,9,13a-heptamethyl-15-(2-(morpholinomethyl)furan-3-yl)-2,3,4,4a,5,6,6a,6b,7,8,8a,9,11,13,13a,13b,14,15b-octadecahydro-1H-chryseno[1,2-f]indazol-4-a-yl)-4-(2-aminoethyl)-1H-pyrazol-5-ol] | – | – | – | – | 0.5 µg/mL (≈ 0.676 µM) | 2 µg/mL (≈ 2.7 µM) | – | 238 to 240 °C |
| C=CC1=C2[C@@H]3CC(C)(C)CC[C@]3(C(=O)O)CC[C@@]2(C)[C@]2(C)CC[C@H]3C(C)(C)c4n[nH]c(N)c4C[C@]3(C)C2C1 (stereo partly drawn) [Example 13, (4aS,6aS,6bR,8aR,13aR,15bS)-12-Amino-2,2,6a,6b,9,9,13a-heptamethyl-15-vinyl-2,3,4,4a,5,6,6a,6b,7,8,8a,9,11,13,13a,13b,14,15b-octadecahydro-1H-chryseno[1,2-f]indazole-4-a-carboxylic acid] | – | – | – | – | 0.5 µg/mL (≈ 0.962 µM) | 1 µg/mL (≈ 1.92 µM) | – | > 300 °C |
| NC[C@H]1O[C@H](O[C@H]2[C@H](O)[C@@H](O[C@H]3O[C@H](CO)[C@@H](O)[C@H](N)[C@H]3O)[C@H](N)C[C@@H]2N)[C@H](N)C[C@@H]1O [Tobramycin, tobramcyin, reference compound] | 4 | >64 | 8 | 16 | – | – | – | – |
| CC1(C)CC[C@]2(C(=O)O)CC[C@]3(C)C(=C(c4cc[nH]c4)CC4[C@@]5(C)Cc6c(n[nH]c6N)C(C)(C)[C@@H]5CC[C@]43C)[C@@H]2C1 (stereo partly drawn) [Example 6, (4aS,6aS,6bR,8aR,13aR,15bS)-12-Amino-2,2,6a,6b,9,9,13a-heptamethyl-15-(1H-pyrrol-3-yl)-2,3,4,4a,5,6,6a,6b,7,8,8a,9,11,13,13a,13b,14,15b-octadecahydro-1H-chryseno[1,2-f]indazole-4-a-carboxylic acid] | – | – | – | – | 0.125 µg/mL (≈ 0.224 µM) | 0.25 µg/mL (≈ 0.447 µM) | – | > 300 °C |
